Source: patent US8729082B2, “Substituted imidazoquinoxalines” (Bayer Intellectual Property GmbH, priority 2009, dated 2014)

target: T1, human kinase Mps-1 (Homo sapiens, UniProt P33981); assay: Mps-1 kinase assay (HTRF); type: biochemical; conditions: lowATP; mean; read-out: Mps1 lowATP mean IC50
T1 construct: N-terminally GST-tagged human full length recombinant Mps-1 kinase; purchased Invitrogen, Karslruhe, Germany PV4071
T1 sequence (P33981 1-857): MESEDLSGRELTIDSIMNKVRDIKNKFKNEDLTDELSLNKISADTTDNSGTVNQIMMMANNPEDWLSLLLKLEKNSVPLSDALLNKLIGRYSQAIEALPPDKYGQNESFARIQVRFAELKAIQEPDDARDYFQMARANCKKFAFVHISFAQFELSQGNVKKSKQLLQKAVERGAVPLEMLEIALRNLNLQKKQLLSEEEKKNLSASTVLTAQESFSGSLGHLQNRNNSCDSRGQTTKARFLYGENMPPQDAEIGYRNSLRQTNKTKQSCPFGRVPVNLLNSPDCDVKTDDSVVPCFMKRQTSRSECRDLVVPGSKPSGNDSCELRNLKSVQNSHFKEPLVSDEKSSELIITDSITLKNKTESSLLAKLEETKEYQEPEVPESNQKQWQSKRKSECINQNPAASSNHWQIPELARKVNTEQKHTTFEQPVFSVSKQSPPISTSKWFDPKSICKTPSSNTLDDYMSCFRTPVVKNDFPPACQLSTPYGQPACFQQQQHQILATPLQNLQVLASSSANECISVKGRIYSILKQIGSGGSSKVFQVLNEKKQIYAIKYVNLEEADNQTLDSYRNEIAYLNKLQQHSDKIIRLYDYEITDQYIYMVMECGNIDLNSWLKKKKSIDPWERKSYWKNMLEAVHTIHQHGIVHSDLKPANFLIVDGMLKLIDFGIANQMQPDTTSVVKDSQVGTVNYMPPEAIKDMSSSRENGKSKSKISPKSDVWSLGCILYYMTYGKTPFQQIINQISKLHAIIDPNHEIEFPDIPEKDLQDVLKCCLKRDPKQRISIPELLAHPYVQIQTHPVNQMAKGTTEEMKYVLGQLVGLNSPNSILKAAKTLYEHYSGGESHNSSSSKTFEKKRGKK
In short: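 HTRF readout: EDTA-stopped reactions incubated 1 h with europium anti-phospho(Ser/Thr) antibody and streptavidin-XLent, emission ratio 665/620 nm after 350 nm excitation. Kinase step: compound pre-bound 15 min to ~1 nM GST-Mps-1, then 60 min at 22 °C with ATP and biotin-peptide substrate; inhibition scaled between no-inhibitor (0%) and no-enzyme (100%) controls.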

| Structure (SMILES) | IC50 |
| --- | --- |
| O=C(NC1CC1)c1ccc(-c2cnc3c(NCCCN4CCOCC4)nc4cc(F)c(F)cc4n23)cc1 [Example 2-90, N-cyclopropyl-4-(7,8-difluoro-4-{[3-(morpholin-4-yl)propyl]amino}imidazo[1,2-a]quinoxalin-1-yl)benzamide] | 438 nM |
| CC(C)CNc1nc2ccccc2n2c(-c3ccc(C(=O)Nc4cc[nH]n4)cc3)cnc12 [Example 3-1, 4-{4-[(2-methylpropyl)amino]imidazo[1,2-a]quinoxalin-1-yl}-N-(1H-pyrazol-3-yl)benzamide] | 3950 nM |
| Cc1ccc(-c2cnc3c(NCC(C)C)nc4ccccc4n23)s1 [Example 1-38, N-(2-methylpropyl)-1-(5-methylthiophen-2-yl)imidazo[1,2-a]quinoxalin-4-amine] | 6050 nM |
| CC(C)CNc1nc2ccccc2n2c(-c3cc(F)ccc3F)cnc12 [Example 1-41, 1-(2,5-difluorophenyl)-N-(2-methylpropyl)imidazo[1,2-a]quinoxalin-4-amine] | 10600 nM |
| CCOc1ccc(-c2cnc3c(NCC(C)C)nc4ccccc4n23)cc1 [Example 1-29, 1-(4-ethoxyphenyl)-N-(2-methylpropyl)imidazo[1,2-a]quinoxalin-4-amine] | 4980 nM |
| CC(C)CNc1nc2ccccc2n2c(-c3ccc(C(=O)NCCCN4CCCC4=O)cc3)cnc12 [Example 3-5, 4-{4-[(2-methylpropyl)amino]imidazo[1,2-a]quinoxalin-1-yl}-N-[3-(2-oxopyrrolidin-1-yl)propyl]benzamide] | 15300 nM |
| CNC(=O)Nc1ccc(-c2cnc3c(NCc4ccnn4C)nc4cc(C#N)ccc4n23)cc1 [Example 2-232, 1-[4-(7-cyano-4-{[(1-methyl-1H-pyrazol-5-yl)methyl]amino}imidazo[1,2-a]quinoxalin-1-yl)phenyl]-3-methylurea] | 1140 nM |
| CNC(=O)c1ccc(-c2cnc3c(NCC(C)C)nc4ccccc4n23)cn1 [Example 1-50, N-methyl-5-{4-[(2-methylpropyl)amino]imidazo[1,2-a]quinoxalin-1-yl}pyridine-2-carboxamide] | 416 nM |
| CNC(=O)Nc1ccc(-c2cnc3c(NCc4cnn(C)c4)nc4cc(C)c(C)cc4n23)cc1 [Example 2-176, 1-[4-(7,8-dimethyl-4-{[(1-methyl-1H-pyrazol-4-yl)methyl]amino}imidazo[1,2-a]quinoxalin-1-yl)phenyl]-3-methylurea] | 616 nM |
| CC(C)CNc1nc2ccccc2n2c(-c3ccc4[nH]ccc4c3)cnc12 [Example 1-39, 1-(1H-indol-5-yl)-N-(2-methylpropyl)imidazo[1,2-a]quinoxalin-4-amine] | 8860 nM |
| CC(C)CNc1nc2ccccc2n2c(-c3ccc(C(=O)NCCc4ccncc4)cc3)cnc12 [Example 3-16, 4-{4-[(2-methylpropyl)amino]imidazo[1,2-a]quinoxalin-1-yl}-N-[2-(pyridin-4-yl)ethyl]benzamide] | 5870 nM |
| CC(C)CNc1nc2ccccc2n2c(-c3ccc(NC(=O)Nc4ccc(CN5CCN(C)CC5)c(C(F)(F)F)c4)cc3)cnc12 [Example 1-1, 1-[4-(4-isobutylamino-imidazo[1,2-a]quinoxalin-1-yl)-phenyl]-3-[4-(4-methyl-piperazin-1-ylmethyl)-3-trifluoromethyl-phenyl]-urea] | 55.9 nM |
| CNC(=O)Nc1ccc(-c2cnc3c(NCCCn4ccnc4)nc4cc(F)c(F)cc4n23)cc1 [Example 2-119, 1-[4-(7,8-difluoro-4-{[3-(1H-imidazol-1-yl)propyl]amino}imidazo[1,2-a]quinoxalin-1-yl)phenyl]-3-methylurea] | 7020 nM |

The next lines start with the values.

| IC50 | Structure (SMILES) |
| --- | --- |
| 22.7 nM | Cc1cc2nc(NCC(C)C)c3ncc(-c4ccc(C(=O)NC5CC5)c(Cl)c4)n3c2cc1C [Example 2-194, 2-chloro-N-cyclopropyl-4-{7,8-dimethyl-4-[(2-methylpropyl)amino]imidazo[1,2-a]quinoxalin-1-yl}benzamide] |
| 24.8 nM | CCCNc1nc2cc(C)c(C)cc2n2c(-c3ccc(C(=O)NC4CC4)c(Cl)c3)cnc12 [Example 2-178, 2-chloro-N-cyclopropyl-4-[7,8-dimethyl-4-(propylamino)imidazo[1,2-a]quinoxalin-1-yl]benzamide] |
| 477 nM | O=C(NC1CC1)c1ccc(-c2cnc3c(NCC(O)CO)nc4ccc(F)cc4n23)cc1 (centres unmarked) [Example 2-59, N-cyclopropyl-4-{4-[(2,3-dihydroxypropyl)amino]-8-fluoroimidazo[1,2-a]quinoxalin-1-yl}benzamide] |
| 93.7 nM | O=C(NC1CC1)c1ccc(-c2cnc3c(NCC(F)(F)F)nc4cc(F)c(F)cc4n23)cc1 [Example 2-97, N-cyclopropyl-4-{7,8-difluoro-4-[(2,2,2-trifluoroethyl)amino]imidazo[1,2-a]quinoxalin-1-yl}benzamide] |
| 1420 nM | O=C(NC1CC1)c1ccc(-c2cnc3c(NCc4cccnc4)nc4ccc(F)cc4n23)cc1Cl [Example 2-81, 2-chloro-N-cyclopropyl-4-{8-fluoro-4-[(pyridin-3-ylmethyl)amino]imidazo[1,2-a]quinoxalin-1-yl}benzamide] |
| 7740 nM | CC(=O)NCCNc1nc2cc(F)c(F)cc2n2c(-c3ccc(C(=O)NC4CC4)c(Cl)c3)cnc12 [Example 2-132, 4-(4-{[2-(acetylamino)ethyl]amino}-7,8-difluoroimidazo[1,2-a]quinoxalin-1-yl)-2-chloro-N-cyclopropylbenzamide] |
| 32.9 nM | N#Cc1ccc2c(c1)nc(NCCCO)c1ncc(-c3ccc(C(=O)NC4CC4)cc3)n12 [Example 2-211, 4-{7-cyano-4-[(3-hydroxypropyl)amino]imidazo[1,2-a]quinoxalin-1-yl}-N-cyclopropylbenzamide] |
| 1220 nM | Cn1cc(CNc2nc3cc(C#N)ccc3n3c(-c4ccc(C(=O)NC5CC5)c(Cl)c4)cnc23)cn1 [Example 2-253, 2-chloro-4-(7-cyano-4-{[(1-methyl-1H-pyrazol-4-yl)methyl]amino}imidazo[1,2-a]quinoxalin-1-yl)-N-cyclopropylbenzamide] |
| 2420 nM | CNC(=O)c1ccc(-c2cnc3c(NCC(C)C)nc4ccccc4n23)cc1Cl [Example 1-46, 2-chloro-N-methyl-4-{4-[(2-methylpropyl)amino]imidazo[1,2-a]quinoxalin-1-yl}benzamide] |
| 232 nM | Cc1ccccc1CNc1nc2ccccc2n2c(-c3ccc(C(=O)NC4CC4)cc3)cnc12 [Example 2-6, N-cyclopropyl-4-{4-[(2-methylbenzyl)amino]imidazo[1,2-a]quinoxalin-1-yl}benzamide] |
| 28.8 nM | N#Cc1ccc2c(c1)nc(NCc1cccnc1)c1ncc(-c3ccc(C(=O)NC4CC4)cc3)n12 [Example 2-214, 4-{7-cyano-4-[(pyridin-3-ylmethyl)amino]imidazo[1,2-a]quinoxalin-1-yl}-N-cyclopropylbenzamide] |
| 3850 nM | COCCCNc1nc2cc(F)c(F)cc2n2c(-c3ccc(C(=O)NC4CC4)c(Cl)c3)cnc12 [Example 2-139, 2-chloro-N-cyclopropyl-4-{7,8-difluoro-4-[(3-methoxypropyl)amino]imidazo[1,2-a]quinoxalin-1-yl}benzamide] |
| 66.4 nM | O=C(NC1CC1)c1ccc(-c2cnc3c(NCCCCO)nc4ccc(F)cc4n23)cc1 [Example 2-47, N-cyclopropyl-4-{8-fluoro-4-[(4-hydroxybutyl)amino]imidazo[1,2-a]quinoxalin-1-yl}benzamide] |
